Patent publication US8598344B2, “CDKI pathway inhibitors and uses thereof” (Senex Biotechnology, priority 2009, dated 2013)

Columns and labels:
Assay in all cases: KinomeScan competition binding assay
Details in all cases: 10 μM compound
BTK = target: T1, BTK (Homo sapiens, UniProt Q06187)
T1 construct: purchased KinomeScan, a division of Ambit Biosciences
Description: (§1) This similarity led us to test SNX14 for the ability to inhibit 285 kinases, using the services of KinaseProfiler of Millipore Corporation (285 kinases). […] The KINOMEscan assay has been described in detail in Fabian et al., Nat. Biotechnol. 23: 329 (2005) and Karaman et al., Nat. Biotechnol. 26: 127 (2008).
(§2) The KinomeScan assay is based on a competition binding assay that quantitatively measures the ability of a compound to compete with an immobilized, ATP site directed ligand. The assay is performed by combining three components: DNA-tagged kinase; immobilized ligand; and a test compound. The ability of the test compound to compete with the immobilized ligand is measured via quantitative PCR of the DNA tag. […] The CDKs tested by Millipore for inhibition with SNX14 included CDK1, CDK2, CDK3, CDK5, CDK7 and CDK9; none of these were inhibited to less than 49 percent of control (POC) activity. The CDKs tested by KinomeScan for the effect of Compound 1 included CDK2, CDK3, CDK4, CDK5, CDK7, CDK8, CDK9 and CDK19; aside from CDK8 and CDK19, the strongest inhibited CDK was CDK7 (33% POC binding). To determine the inhibition of which kinases correlates with the biological activity of SNX2-class compounds, we tested eight additional compounds of the SNX2 family, which gave different IC50 values in the cellular assays, for the ability to affect 24 kinases that were most susceptible to compound 1, through the services of KinomeScan. […] We have also determined the binding constant (Kd) for SNX14, compound 1, compound 20, compound 26, compound 43 and compound 14 in kinase assays for CDK8 and CDK19 (Table 1).

CIT = target: T2, CIT (Homo sapiens, UniProt O14578)
T2 construct: purchased KinomeScan, a division of Ambit Biosciences
Description: as §1, §2

CLK1 = target: T3, CLK1 (Homo sapiens, UniProt P49759)
T3 construct: purchased KinomeScan, a division of Ambit Biosciences
Description: as §1, §2

CLK4 = target: T4, CLK4 (Homo sapiens, UniProt Q9HAZ1)
T4 construct: purchased KinomeScan, a division of Ambit Biosciences
Description: as §1, §2

CSNK1G3 = target: T5, CSNK1G3 (Homo sapiens, UniProt Q9Y6M4)
T5 construct: purchased KinomeScan, a division of Ambit Biosciences
Description: as §1, §2

EGFR (G719C) = target: T6, EGFR (G719C) (Homo sapiens, UniProt P00533, G719C)
T6 construct: purchased KinomeScan, a division of Ambit Biosciences
Description: as §1, §2

HIPK2 = target: T7, HIPK2 (Homo sapiens, UniProt Q9H2X6)
T7 construct: purchased KinomeScan, a division of Ambit Biosciences
Description: as §1, §2

HIPK3 = target: T8, HIPK3 (Homo sapiens, UniProt Q9H422)
T8 construct: purchased KinomeScan, a division of Ambit Biosciences
Description: as §1, §2

IRAK1 = target: T9, IRAK1 (Homo sapiens, UniProt P51617)
T9 construct: purchased KinomeScan, a division of Ambit Biosciences
Description: as §1, §2

MAP4K2 = target: T10, MAP4K2 (Homo sapiens, UniProt Q12851)
T10 construct: purchased KinomeScan, a division of Ambit Biosciences
T10 sequence (Q12851 1-820): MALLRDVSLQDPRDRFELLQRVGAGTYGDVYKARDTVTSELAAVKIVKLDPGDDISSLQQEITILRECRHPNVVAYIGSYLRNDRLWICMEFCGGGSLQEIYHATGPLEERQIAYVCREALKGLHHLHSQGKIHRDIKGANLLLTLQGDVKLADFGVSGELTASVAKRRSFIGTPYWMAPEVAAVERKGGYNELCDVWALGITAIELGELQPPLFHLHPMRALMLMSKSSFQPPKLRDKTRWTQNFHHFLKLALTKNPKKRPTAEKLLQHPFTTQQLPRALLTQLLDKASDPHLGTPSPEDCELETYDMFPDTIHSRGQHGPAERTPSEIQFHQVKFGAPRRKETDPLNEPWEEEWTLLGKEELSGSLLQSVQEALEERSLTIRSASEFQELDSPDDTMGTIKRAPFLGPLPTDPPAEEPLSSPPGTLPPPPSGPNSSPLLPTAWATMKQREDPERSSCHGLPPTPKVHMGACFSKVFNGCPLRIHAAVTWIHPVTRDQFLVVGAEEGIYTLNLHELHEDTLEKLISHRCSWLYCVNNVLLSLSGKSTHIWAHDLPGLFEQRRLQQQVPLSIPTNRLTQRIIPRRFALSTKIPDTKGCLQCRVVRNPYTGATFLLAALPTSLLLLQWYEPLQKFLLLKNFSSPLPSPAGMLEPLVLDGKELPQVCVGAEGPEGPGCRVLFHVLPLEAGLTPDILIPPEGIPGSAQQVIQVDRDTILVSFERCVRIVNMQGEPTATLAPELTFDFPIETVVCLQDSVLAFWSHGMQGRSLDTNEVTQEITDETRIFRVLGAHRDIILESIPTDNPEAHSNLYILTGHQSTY
Description: as §1, §2

MEK3 = target: T11, MEK3 (Homo sapiens, UniProt P46734)
T11 construct: purchased KinomeScan, a division of Ambit Biosciences
T11 sequence (P46734 1-347): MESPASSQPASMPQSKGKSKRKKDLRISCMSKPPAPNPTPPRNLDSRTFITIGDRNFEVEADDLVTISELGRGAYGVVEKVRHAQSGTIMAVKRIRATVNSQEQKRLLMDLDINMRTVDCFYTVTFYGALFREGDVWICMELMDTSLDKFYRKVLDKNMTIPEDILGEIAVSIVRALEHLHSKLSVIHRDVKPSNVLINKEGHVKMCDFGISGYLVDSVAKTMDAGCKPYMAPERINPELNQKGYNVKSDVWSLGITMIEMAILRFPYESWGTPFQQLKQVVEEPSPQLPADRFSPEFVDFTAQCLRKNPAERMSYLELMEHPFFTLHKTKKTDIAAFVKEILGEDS
Description: as §1, §2

PIK3CG = target: T12, PIK3CG (Homo sapiens, UniProt P48736)
T12 construct: purchased KinomeScan, a division of Ambit Biosciences
Description: as §1, §2

SLK = target: T13, SLK (Homo sapiens, UniProt Q9H2G2)
T13 construct: purchased KinomeScan, a division of Ambit Biosciences
Description: as §1, §2

T7 sequence (Q9H2X6 whole entry): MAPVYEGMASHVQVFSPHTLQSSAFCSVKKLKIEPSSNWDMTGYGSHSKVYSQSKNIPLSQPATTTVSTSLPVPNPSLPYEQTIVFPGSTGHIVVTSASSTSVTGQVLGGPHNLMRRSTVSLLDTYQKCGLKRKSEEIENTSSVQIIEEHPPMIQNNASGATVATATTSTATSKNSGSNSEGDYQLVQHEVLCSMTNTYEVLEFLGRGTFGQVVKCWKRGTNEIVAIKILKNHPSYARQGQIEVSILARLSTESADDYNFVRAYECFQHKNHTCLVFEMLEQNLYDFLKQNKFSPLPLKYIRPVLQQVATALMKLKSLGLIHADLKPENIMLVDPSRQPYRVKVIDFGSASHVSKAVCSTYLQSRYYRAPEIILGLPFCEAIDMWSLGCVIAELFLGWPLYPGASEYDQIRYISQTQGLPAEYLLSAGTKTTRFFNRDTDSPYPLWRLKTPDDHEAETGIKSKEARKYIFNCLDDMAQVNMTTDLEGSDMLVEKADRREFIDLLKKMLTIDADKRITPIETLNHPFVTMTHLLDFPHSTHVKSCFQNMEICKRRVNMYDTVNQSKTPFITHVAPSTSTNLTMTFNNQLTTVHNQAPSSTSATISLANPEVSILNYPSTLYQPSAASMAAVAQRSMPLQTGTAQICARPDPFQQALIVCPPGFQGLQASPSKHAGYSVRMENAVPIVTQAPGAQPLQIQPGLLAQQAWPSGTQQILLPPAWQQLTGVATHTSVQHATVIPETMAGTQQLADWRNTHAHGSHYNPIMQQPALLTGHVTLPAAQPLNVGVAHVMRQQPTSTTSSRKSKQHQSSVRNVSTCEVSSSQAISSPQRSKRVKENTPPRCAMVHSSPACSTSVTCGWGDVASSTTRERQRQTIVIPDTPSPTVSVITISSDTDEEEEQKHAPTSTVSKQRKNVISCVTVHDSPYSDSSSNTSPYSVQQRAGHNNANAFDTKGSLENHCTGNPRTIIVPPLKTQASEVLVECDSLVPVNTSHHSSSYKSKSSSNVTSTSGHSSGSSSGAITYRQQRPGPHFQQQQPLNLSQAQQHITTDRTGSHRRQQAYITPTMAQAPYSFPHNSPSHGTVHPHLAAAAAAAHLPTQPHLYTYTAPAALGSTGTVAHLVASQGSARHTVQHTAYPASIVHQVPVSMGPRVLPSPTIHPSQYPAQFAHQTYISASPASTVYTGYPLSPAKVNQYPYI
T2 sequence (O14578 whole entry): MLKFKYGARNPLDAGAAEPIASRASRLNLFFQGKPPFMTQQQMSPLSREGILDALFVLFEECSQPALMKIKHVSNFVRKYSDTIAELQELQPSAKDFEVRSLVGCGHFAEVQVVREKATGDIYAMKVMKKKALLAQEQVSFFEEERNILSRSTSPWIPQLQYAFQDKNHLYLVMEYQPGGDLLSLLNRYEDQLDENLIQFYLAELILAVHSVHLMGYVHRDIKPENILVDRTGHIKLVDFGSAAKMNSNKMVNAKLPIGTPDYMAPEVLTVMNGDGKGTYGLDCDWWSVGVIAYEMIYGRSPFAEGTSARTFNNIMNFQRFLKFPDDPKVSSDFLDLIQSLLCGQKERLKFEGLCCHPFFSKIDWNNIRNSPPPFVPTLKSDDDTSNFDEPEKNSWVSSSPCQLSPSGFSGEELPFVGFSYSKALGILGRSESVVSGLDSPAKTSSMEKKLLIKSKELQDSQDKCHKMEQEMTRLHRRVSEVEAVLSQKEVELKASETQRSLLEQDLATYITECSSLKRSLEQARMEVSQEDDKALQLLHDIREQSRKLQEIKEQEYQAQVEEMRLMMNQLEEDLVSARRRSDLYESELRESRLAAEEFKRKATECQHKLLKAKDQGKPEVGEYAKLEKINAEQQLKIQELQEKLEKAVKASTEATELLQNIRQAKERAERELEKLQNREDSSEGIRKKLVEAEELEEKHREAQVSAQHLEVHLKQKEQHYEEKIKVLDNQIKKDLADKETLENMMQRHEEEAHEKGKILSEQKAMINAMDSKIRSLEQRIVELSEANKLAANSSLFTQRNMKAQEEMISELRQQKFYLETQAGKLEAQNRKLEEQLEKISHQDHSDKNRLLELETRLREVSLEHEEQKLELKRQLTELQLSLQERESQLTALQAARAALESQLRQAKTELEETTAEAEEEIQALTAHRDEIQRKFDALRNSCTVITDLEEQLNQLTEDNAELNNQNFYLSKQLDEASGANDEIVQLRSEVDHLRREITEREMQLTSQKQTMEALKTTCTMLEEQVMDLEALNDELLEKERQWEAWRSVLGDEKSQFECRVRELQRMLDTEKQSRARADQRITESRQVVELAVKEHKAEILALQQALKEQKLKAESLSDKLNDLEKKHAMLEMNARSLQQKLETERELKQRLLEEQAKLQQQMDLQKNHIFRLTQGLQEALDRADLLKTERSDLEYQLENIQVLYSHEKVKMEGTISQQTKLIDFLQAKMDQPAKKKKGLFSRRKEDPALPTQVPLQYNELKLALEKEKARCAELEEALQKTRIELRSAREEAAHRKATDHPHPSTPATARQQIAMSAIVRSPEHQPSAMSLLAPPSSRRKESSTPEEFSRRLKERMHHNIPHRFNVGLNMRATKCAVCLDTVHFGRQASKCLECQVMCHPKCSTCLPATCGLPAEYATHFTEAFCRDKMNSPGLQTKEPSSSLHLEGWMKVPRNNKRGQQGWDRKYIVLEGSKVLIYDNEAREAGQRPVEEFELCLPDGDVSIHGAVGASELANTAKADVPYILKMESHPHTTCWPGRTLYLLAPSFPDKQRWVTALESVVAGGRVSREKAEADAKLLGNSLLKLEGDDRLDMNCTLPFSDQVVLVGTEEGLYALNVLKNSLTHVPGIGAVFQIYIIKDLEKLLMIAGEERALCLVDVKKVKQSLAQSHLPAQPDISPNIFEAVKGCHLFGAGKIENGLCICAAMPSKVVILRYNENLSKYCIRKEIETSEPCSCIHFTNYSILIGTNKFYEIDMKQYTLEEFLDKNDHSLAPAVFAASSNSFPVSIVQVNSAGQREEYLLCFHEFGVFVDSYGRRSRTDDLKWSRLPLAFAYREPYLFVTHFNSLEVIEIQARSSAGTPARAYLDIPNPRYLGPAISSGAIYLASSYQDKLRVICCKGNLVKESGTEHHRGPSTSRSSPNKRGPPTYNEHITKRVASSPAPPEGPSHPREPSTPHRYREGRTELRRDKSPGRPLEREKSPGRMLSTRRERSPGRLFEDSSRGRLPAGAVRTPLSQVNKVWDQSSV
T3 sequence (P49759 whole entry): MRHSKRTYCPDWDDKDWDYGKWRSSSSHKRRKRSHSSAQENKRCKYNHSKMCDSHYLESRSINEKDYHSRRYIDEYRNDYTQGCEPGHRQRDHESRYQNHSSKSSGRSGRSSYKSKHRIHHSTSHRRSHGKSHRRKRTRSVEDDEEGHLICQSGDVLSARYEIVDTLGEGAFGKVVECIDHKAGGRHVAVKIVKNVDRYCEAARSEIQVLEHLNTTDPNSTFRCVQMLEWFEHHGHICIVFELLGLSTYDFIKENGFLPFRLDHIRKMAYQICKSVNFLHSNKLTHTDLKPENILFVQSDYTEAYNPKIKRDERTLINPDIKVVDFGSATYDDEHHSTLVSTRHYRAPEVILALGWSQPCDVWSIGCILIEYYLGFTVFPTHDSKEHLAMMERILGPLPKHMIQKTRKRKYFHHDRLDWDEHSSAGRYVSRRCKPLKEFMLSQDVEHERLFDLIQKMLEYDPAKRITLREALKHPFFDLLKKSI
T5 sequence (Q9Y6M4 whole entry): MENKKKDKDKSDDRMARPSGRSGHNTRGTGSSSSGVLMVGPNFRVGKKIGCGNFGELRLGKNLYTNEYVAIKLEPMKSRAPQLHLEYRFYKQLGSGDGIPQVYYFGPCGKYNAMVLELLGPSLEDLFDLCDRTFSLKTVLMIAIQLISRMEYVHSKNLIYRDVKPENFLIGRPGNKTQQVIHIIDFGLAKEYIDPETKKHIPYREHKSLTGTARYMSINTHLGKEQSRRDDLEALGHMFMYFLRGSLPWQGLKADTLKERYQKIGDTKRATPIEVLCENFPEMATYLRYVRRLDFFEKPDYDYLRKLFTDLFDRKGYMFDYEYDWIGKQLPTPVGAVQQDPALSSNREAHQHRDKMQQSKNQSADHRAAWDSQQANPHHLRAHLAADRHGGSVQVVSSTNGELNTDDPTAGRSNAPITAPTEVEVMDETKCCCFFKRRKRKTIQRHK
T9 sequence (P51617 whole entry): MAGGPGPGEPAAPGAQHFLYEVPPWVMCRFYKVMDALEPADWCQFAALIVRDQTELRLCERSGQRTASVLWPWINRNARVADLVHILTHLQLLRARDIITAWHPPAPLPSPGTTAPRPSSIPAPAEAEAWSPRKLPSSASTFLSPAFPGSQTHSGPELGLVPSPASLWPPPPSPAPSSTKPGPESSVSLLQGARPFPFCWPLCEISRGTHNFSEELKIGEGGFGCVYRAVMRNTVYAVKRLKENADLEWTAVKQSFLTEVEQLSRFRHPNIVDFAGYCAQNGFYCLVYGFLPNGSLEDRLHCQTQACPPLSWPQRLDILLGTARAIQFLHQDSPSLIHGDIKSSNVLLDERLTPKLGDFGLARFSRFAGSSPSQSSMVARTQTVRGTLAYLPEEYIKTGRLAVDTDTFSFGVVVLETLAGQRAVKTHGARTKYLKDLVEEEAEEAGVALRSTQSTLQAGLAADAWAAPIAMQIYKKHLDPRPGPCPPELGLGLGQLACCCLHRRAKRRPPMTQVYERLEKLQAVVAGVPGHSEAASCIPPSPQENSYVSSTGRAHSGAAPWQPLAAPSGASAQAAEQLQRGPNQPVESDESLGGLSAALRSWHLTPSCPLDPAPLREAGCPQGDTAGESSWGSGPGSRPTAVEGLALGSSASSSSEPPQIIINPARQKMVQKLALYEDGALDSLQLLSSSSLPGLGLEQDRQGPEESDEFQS

SMILES | POC ligand binding, BTK (BTK) | POC ligand binding, CIT (CIT) | POC ligand binding, CLK1 (CLK1) | POC ligand binding, CLK4 (CLK4) | POC ligand binding, CSNK1G3 (CSNK1G3) | POC ligand binding, EGFR (G719C) (EGFR (G719C)) | POC ligand binding, HIPK2 (HIPK2) | POC ligand binding, HIPK3 (HIPK3) | POC ligand binding, IRAK1 (IRAK1) | POC ligand binding, MAP4K2 (MAP4K2) | POC ligand binding, MEK3 (MEK3) | POC ligand binding, PIK3CG (PIK3CG) | POC ligand binding, SLK (SLK) | also measured
N#Cc1ccc2ncnc(NCCc3ccc4ccccc4c3)c2c1 [compound 26] | 100 POC | 40 POC | 32 POC | 26 POC | 50 POC | 68 POC | 73 POC | 66 POC | 89 POC | 28 POC | 78 POC | 58 POC | 73 POC | 
N#Cc1ccc2ncnc(NCc3ccc4ccccc4c3)c2c1 [compound 43] | 100 POC |  |  |  |  |  |  |  |  |  |  | 35 POC |  | POC ligand binding, CIT (CIT; 10 µM): 14 POC; POC ligand binding, CLK1 (CLK1; 10 µM): 9 POC; POC ligand binding, CLK4 (CLK4; 10 µM): 9.6 POC; POC ligand binding, CSNK1G3 (CSNK1G3; 10 µM): 54 POC; POC ligand binding, EGFR (G719C) (EGFR (G719C); 10 µM): 53 POC; POC ligand binding, HIPK2 (HIPK2; 10 µM): 30 POC; POC ligand binding, HIPK3 (HIPK3; 10 µM): 42 POC; POC ligand binding, IRAK1 (IRAK1; 10 µM): 7.6 POC; POC ligand binding, MAP4K2 (MAP4K2; 10 µM): 28 POC; POC ligand binding, MEK3 (MEK3; 10 µM): 64 POC; POC ligand binding, SLK (SLK; 10 µM): 92 POC
N#Cc1ccc2ncnc(NCCc3ccccc3)c2c1 [compound 1] | 15 POC | 15 POC | 4.2 POC | 8 POC | 16 POC | 13 POC | 18 POC | 18 POC | 8.2 POC | 12 POC | 18 POC | 8 POC | 11 POC | 
CC(C)CNc1ncnc2ccc(C(F)(F)F)cc12 [compound 45] | 100 POC | 50 POC | 8.4 POC | 7.8 POC | 50 POC | 59 POC | 20 POC | 28 POC | 25 POC | 12 POC | 71 POC | 82 POC | 59 POC | 
COc1ccc2ncnc(NCCc3ccccc3)c2c1 [compound 44] | 100 POC | 18 POC | 17 POC | 17 POC | 84 POC | 0.85 POC | 62 POC | 53 POC | 64 POC | 35 POC | 72 POC | 88 POC | 43 POC | 
N#Cc1ccc2ncnc(NCc3ccc4ccccc4c3)c2c1 [compound 14] | 100 POC |  |  |  |  |  |  |  |  |  |  | 35 POC |  | POC ligand binding, CIT (CIT; 10 µM): 9.8 POC; POC ligand binding, CLK1 (CLK1; 10 µM): 18 POC; POC ligand binding, CLK4 (CLK4; 10 µM): 16 POC; POC ligand binding, CSNK1G3 (CSNK1G3; 10 µM): 52 POC; POC ligand binding, EGFR (G719C) (EGFR (G719C); 10 µM): 92 POC; POC ligand binding, HIPK2 (HIPK2; 10 µM): 34 POC; POC ligand binding, HIPK3 (HIPK3; 10 µM): 35 POC; POC ligand binding, IRAK1 (IRAK1; 10 µM): 35 POC; POC ligand binding, MAP4K2 (MAP4K2; 10 µM): 16 POC; POC ligand binding, MEK3 (MEK3; 10 µM): 29 POC; POC ligand binding, SLK (SLK; 10 µM): 90 POC
N#Cc1ccc2ncnc(NCc3ccc(Cl)cc3)c2c1 [compound 20] | 100 POC | 7.9 POC | 12 POC | 11 POC | 82 POC | 34 POC | 28 POC | 28 POC | 26 POC | 21 POC | 76 POC | 40 POC | 61 POC | 
CCCNc1ncnc2ccc(N3CCOCC3)cc12 [compound 46] | 81 POC | 86 POC | 48 POC | 24 POC | 100 POC | 61 POC | 30 POC | 34 POC | 81 POC | 82 POC | 100 POC | 94 POC | 88 POC | 
